# Experimental data from patent publication US11351206B2, “Probiotic sports nutrition compositions” (Ganeden Biotech, Inc., priority 2011, dated 2022).
# Tested on: various bacterial pathogens
# Assay: Zone of inhibition assay, positive control
# Assay type: cell-based
# Conditions: 1 μl volume
# Excerpt: The probiotic organisms described herein, e.g., Bacillus coagulans strain GBI-30 or GANEDEN BC-30™, ATCC Designation Number PTA-6086, promote digestive and oral health and support the immune system. The ability of Bacillus coagulans to inhibit various bacterial pathogens was quantitatively ascertained by use of an in vitro assay. This assay is part of a standardized bacterial pathogen screen (developed by the U.S. Food and Drug Administration (FDA)) and is commercially available on solid support disks (DIFCO® BACTROL® Antibiotic Disks). To perform the assay, potato-dextrose plates)(DIFCO® were initially prepared using standard procedures. The plates were then individually inoculated with the bacteria (approximately 1.5×10^6 CFU) to be tested so as to form a confluent bacterial bed.
# Inhibition of microorganisms (e.g. gastrointestinal pathogens) by Bacillus coagulans was subsequently ascertained by placing approximately 1.8×10^6 CFU of Bacillus coagulans in 10 μl of broth or buffer, directly in the center of the potato-dextrose plate with one test locus being approximately 8 mm in diameter per plate. A minimum of three test loci were used for each assay. […] The plates were then incubated for approximately about 18 hr at 30° C., at which time the zones of inhibition were measured. […]
smiles,measurement,setting,value
O=CCCCC=O [glutaraldehyde],inhibition,about 18 hr at 30° C.,excellent “inhibition”
same,zone of inhibition diameter,average of three tests,approximately 16.2 mm
